# Assay results published in patent US20060229433A1, “Modified antiviral peptides with increased activity and cell membrane affinity” (priority 2003, published 2006).
# Values joined by “and” are separate entries in the source; they are usually repeats but may differ in a detail not shown here. Equal entries are not always repeated. Square brackets hold non-standard residues; d marks the D form. Peptide text beside a SMILES is read from it. Ava = NCCCCC(=O)O
# How the values were obtained:
# Assay type in all cases: cell-based
# [1] = test system: HIV-1 NL 4-3; assay: HIV-1 infection of C8166 cells (syncytia formation, p24 ELISA) with HIV-1 NL 4-3; set-up: key to syncitia formed, Day 4 / syncitia formed, Day 5 / syncitia formed, Day 6 / syncitia formed, Day 7: ++, +, (+), (+)− and − represent decreasing numbers of syncitia formed; ++, +, (+), (+)− and − represent decreasing numbers of syncitia formed; ++, +, (+), (+)− and − represent decreasing numbers of syncitia formed; ++, +, (+), (+)− and − represent decreasing numbers of syncitia formed; ++, +, (+), (+)− and − represent decreasing numbers of syncitia formed
# In short: (§1)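 C8166 T-cells were preincubated with peptide for 1 h at 37 °C, then exposed for 1 h to HIV-1 at 1000 TCID50/ml, washed, and cultured with peptide kept present throughout, with medium replaced at day 4. Infection was scored by syncytia formation and by supernatant p24 ELISA, with at least two runs in duplicate.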
# [2] = test system: HIV-1 NDK; assay: HIV-1 infection of C8166 cells (syncytia formation, p24 ELISA) with HIV-1 NDK; set-up: key to syncitia formed, Day 4 / syncitia formed, Day 5 / syncitia formed, Day 6 / syncitia formed, Day 7: ++, +, (+), (+)− and − represent decreasing numbers of syncitia formed; ++, +, (+), (+)− and − represent decreasing numbers of syncitia formed; ++, +, (+), (+)− and − represent decreasing numbers of syncitia formed; ++, +, (+), (+)− and − represent decreasing numbers of syncitia formed; ++, +, (+), (+)− and − represent decreasing numbers of syncitia formed; conditions: for P 24: P 24 after Day 7
# In short: as §1
# [3] = test system: HIV-1 NL 4-3; assay: HIV-1 infection of C8166 cells (syncytia formation, p24 ELISA) with HIV-1 NL 4-3; set-up: key: ++, +, (+), (+)− and − represent decreasing numbers of syncitia formed; ++, +, (+), (+)− and − represent decreasing numbers of syncitia formed; ++, +, (+), (+)− and − represent decreasing numbers of syncitia formed; ++, +, (+), (+)− and − represent decreasing numbers of syncitia formed; ++, +, (+), (+)− and − represent decreasing numbers of syncitia formed; conditions: Table 6
# In short: as §1
compound,measurement,setting,value
"C[C@H](NC(=O)[C@H](CCCNC(=N)N)NC(=O)CNC(=O)[C@@H]1CCCN1C(=O)CN)C(=O)NCCCCC(=O)O [GPGRA valeric acid, GPGRA-NHCH2CH2CH2CH2COOH] (H-GPGRA[Ava]-OH; N-terminus assumed)",Day 7 syncitia formed,"[1]; 0.005 μM, Table 6",++/T
same,"syncitia formed, Day 4","[1]; 0.01 μM, C8166 cells",−
same,"syncitia formed, Day 5","[1]; 0.01 μM, C8166 cells",+
same,"syncitia formed, Day 6","[1]; 0.01 μM, C8166 cells",++
same,"syncitia formed, Day 7","[1]; 0.01 μM, Day 7, C8166 cells",++
same,P 24,"[1]; 0.01 μM, P 24 after Day 7, C8166 cells",13870 pg/mL and 11810 pg/mL
same,"syncitia formed, Day 4","[1]; 0.05 μM, C8166 cells",−
same,"syncitia formed, Day 5","[1]; 0.05 μM, C8166 cells",(+)
same,"syncitia formed, Day 6","[1]; 0.05 μM, C8166 cells",+
same,"syncitia formed, Day 7","[1]; 0.05 μM, Day 7, C8166 cells",+
same,"syncitia formed, Day 4","[1]; 0.1 μM, C8166 cells",−
same,"syncitia formed, Day 5","[1]; 0.1 μM, C8166 cells",−
same,"syncitia formed, Day 6","[1]; 0.1 μM, C8166 cells",(+)
same,"syncitia formed, Day 7","[1]; 0.1 μM, Day 7, C8166 cells",+
same,P 24,"[1]; 0.1 μM, P 24 after Day 7, C8166 cells",2356 pg/mL and 2416 pg/mL
same,"syncitia formed, Day 4","[1]; 0.5 μM, C8166 cells",−
same,"syncitia formed, Day 5","[1]; 0.5 μM, C8166 cells",−
same,"syncitia formed, Day 6","[1]; 0.5 μM, C8166 cells",−
same,"syncitia formed, Day 7","[1]; 0.5 μM, Day 7, C8166 cells",(+)
same,"syncitia formed, Day 4","[1]; 1 μM, C8166 cells",−
same,"syncitia formed, Day 5","[1]; 1 μM, C8166 cells",−
same,"syncitia formed, Day 6","[1]; 1 μM, C8166 cells",−
same,"syncitia formed, Day 7","[1]; 1 μM, Day 7, C8166 cells",−
same,P 24,"[1]; 1 μM, P 24 after Day 7, C8166 cells",13 pg/mL and 10 pg/mL
same,"syncitia formed, Day 4","[1]; 5 μM, C8166 cells",−
same,"syncitia formed, Day 5","[1]; 5 μM, C8166 cells",−
same,"syncitia formed, Day 6","[1]; 5 μM, C8166 cells",−
same,"syncitia formed, Day 7","[1]; 5 μM, Day 7, C8166 cells",−
same,P 24,"[1]; 5 μM, P 24 after Day 7, C8166 cells",2.7 pg/mL and 3 pg/mL
same,IC50,"[1]; C8166 cells, HIV-1 subtype B NL 4-3, Table 9, two lines = tested twice, 8 days apart",10 nM
same,P 24,"[1]; Day 7, 0.005 μM, Table 6",23810 pg/mL
same,P 24,"[1]; Day 7, 0.01 μM, Table 6",13030 pg/mL and 13810 pg/mL
same,P 24,"[1]; Day 7, 0.05 μM, Table 6",6830 pg/mL and 3820 pg/mL
same,P 24,"[1]; Day 7, 0.5 μM, Table 6",2 pg/mL and 2.2 pg/mL
same,P 24,"[1]; Day 7, 1 μM, Table 6",2.3 pg/mL and 1.9 pg/mL
same,P 24,"[1]; Day 7, 5 μM, Table 6",2.7 pg/mL and 1.8 pg/mL
same,"syncitia formed, Day 4",[2]; 0.005 μM,(+)
same,"syncitia formed, Day 5",[2]; 0.005 μM,+
same,"syncitia formed, Day 6",[2]; 0.005 μM,++
same,"syncitia formed, Day 7",[2]; 0.005 μM,++
same,P 24,[2]; 0.005 μM,23810 pg/mL
same,"syncitia formed, Day 4",[2]; 0.01 μM,−
same,"syncitia formed, Day 5",[2]; 0.01 μM,+
same,"syncitia formed, Day 6",[2]; 0.01 μM,++
same,"syncitia formed, Day 7",[2]; 0.01 μM,++
same,P 24,[2]; 0.01 μM,13810 pg/mL and 18710 pg/mL
same,"syncitia formed, Day 4",[2]; 0.05 μM,−
same,"syncitia formed, Day 5",[2]; 0.05 μM,(+)
same,"syncitia formed, Day 6",[2]; 0.05 μM,++
same,"syncitia formed, Day 7",[2]; 0.05 μM,++
same,"syncitia formed, Day 4",[2]; 0.1 μM,−
same,"syncitia formed, Day 5",[2]; 0.1 μM,(+)
same,"syncitia formed, Day 6",[2]; 0.1 μM,++
same,"syncitia formed, Day 7",[2]; 0.1 μM,++
same,P 24,[2]; 0.1 μM,5600 pg/mL and 6400 pg/mL
same,"syncitia formed, Day 4",[2]; 0.5 μM,−
same,"syncitia formed, Day 5",[2]; 0.5 μM,−
same,"syncitia formed, Day 6",[2]; 0.5 μM,+
same,"syncitia formed, Day 7",[2]; 0.5 μM,++
same,"syncitia formed, Day 4",[2]; 1 μM,−
same,"syncitia formed, Day 5",[2]; 1 μM,−
same,"syncitia formed, Day 6",[2]; 1 μM,−
same,"syncitia formed, Day 7",[2]; 1 μM,+
same,P 24,[2]; 1 μM,2000 pg/mL and 2403 pg/mL
same,"syncitia formed, Day 4",[2]; 5 μM,−
same,"syncitia formed, Day 5",[2]; 5 μM,−
same,"syncitia formed, Day 6",[2]; 5 μM,−
same,"syncitia formed, Day 7",[2]; 5 μM,− and (+)
same,IC50,"[2]; HIV 1 NDK, Table 10",> 5000 nM
same,IC100,"[2]; HIV 1 NDK, Table 10",5 µM
same,Day 4 syncitia formed,[3]; 0.005 μM,−
same,Day 5 syncitia formed,[3]; 0.005 μM,+
same,Day 6 syncitia formed,[3]; 0.005 μM,++
same,Day 4 syncitia formed,[3]; 0.01 μM,−
same,Day 5 syncitia formed,[3]; 0.01 μM,+
same,Day 6 syncitia formed,[3]; 0.01 μM,++
same,Day 7 syncitia formed,[3]; 0.01 μM,++
same,Day 4 syncitia formed,[3]; 0.05 μM,−
same,Day 5 syncitia formed,[3]; 0.05 μM,(+)
same,Day 6 syncitia formed,[3]; 0.05 μM,+
same,Day 7 syncitia formed,[3]; 0.05 μM,+
same,Day 4 syncitia formed,[3]; 0.1 μM,−
same,Day 5 syncitia formed,[3]; 0.1 μM,(+)
same,Day 6 syncitia formed,[3]; 0.1 μM,+
same,Day 7 syncitia formed,[3]; 0.1 μM,+
same,Day 4 syncitia formed,[3]; 0.5 μM,−
same,Day 5 syncitia formed,[3]; 0.5 μM,−
same,Day 6 syncitia formed,[3]; 0.5 μM,−
same,Day 7 syncitia formed,[3]; 0.5 μM,−
same,Day 4 syncitia formed,[3]; 1 μM,−
same,Day 5 syncitia formed,[3]; 1 μM,−
same,Day 6 syncitia formed,[3]; 1 μM,−
same,Day 7 syncitia formed,[3]; 1 μM,−
same,Day 4 syncitia formed,[3]; 5 μM,−
same,Day 5 syncitia formed,[3]; 5 μM,−
same,Day 6 syncitia formed,[3]; 5 μM,−
same,Day 7 syncitia formed,[3]; 5 μM,−
